The text below walks through data of patent publication US20240361301A1, “METHODS AND COMPOSITIONS FOR MODULATING GOBLET CELLS AND FOR MUCO-OBSTRUCTIVE DISEASES” (Flagship Pioneering Innovations VI, LLC, priority 2021, published 2024).

Assay [1] has as its system mouse intestinal organoids. The assay can be described thus: Mouse small intestinal organoid differentiation, lineage markers by Q-PCR. Conditions: mouse intestinal organoids in ENR media, after 5 days of treatments, FIG. 1. It counts as cell-based. The source says: Cryopreserved mouse intestinal organoids derived from small intestine were obtained from Stem Cell Technologies. The organoids were thawed and propagated in Intesticult Growth Medium (Mouse) (purchased from Stem Cell Technologies) following the company's instructions. Briefly, approximately 100 organoid fragments/well are embedded in 6 Matrigel domes in 6-well plates and growth media is renewed every 2-3 days. The organoids are passaged every 5-6 days in 1:4 ratio. To assess the potential of the predicted perturbations to induce or reduce the goblet cell lineage during organoid differentiation, an in vitro assay was established to induce the various intestinal lineages (enterocytes, goblet cells, Paneth cells, Enteroendocrine cells) based on published data (Yin et al, Nat. Meth. 2013). Briefly, organoid fragments are embedded in Matrigel and grown in custom-made media in the presence of EGF, Noggin, Rspondin (ENR) supplemented with the indicated factors (Table 4) that are known to induce markers of the various intestinal lineages. The expression of markers and the induction of the various cell lineages was assessed by Q-PCRs after 5 days of treatments (FIG. 1). Further characterization of the organoids will be performed by immunofluorescence staining and flow cytometry. For immunofluorescence commercially available antibodies against Muc2, ChrA, and ALPI will be used.

For assay [2], the system named is mouse intestinal organoids. Particulars: factors known to induce markers of the intestinal lineages (Yin et al.), ENR media; cited from earlier work.
In assay [3] the test system is Human bronchial epithelial cells (HBECs) from COPD donors. Nature of the assay: IL-13 induced goblet hyperplasia in COPD donor HBEC air-liquid interface culture, qPCR. Particulars: 0.3 ng/ml IL-13, ALI day 14, vs DMSO. In kind it is cell-based. The source says:
Air-liquid interface (ALI) differentiation of primary human bronchial epithelial cells (HBECs) is an accepted in vitro model of IL-13-induced goblet cell hyperplasia. HBECs were initially thawed into T75 flasks in PneumaCult maintenance media, allowed to expand, then seeded into apical chamber of transwells. After reaching confluency, medium was removed from the apical and basal chambers, and replaced only in the basal chamber with complete PneumaCult-ALI Medium to start air-liquid interface (ALI) differentiation. Cells were differentiated under ALI conditions for 14 days, in presence or absence of IL-13. Medium in the basal chamber containing IL-13 and test compounds was replenished 3 times a week, and excess mucus was washed from the apical chamber with PBS twice a week starting on day 7. At day 14, differentiation to goblet, ciliated, and club cells is assessed by histology (IHC) or qPCR, using goblet marker (Muc5ac), ciliated cell markers (Foxj1, Acetyl α-tubulin) and club cell marker (Scgb1a1) (FIG. 5).
Human bronchial epithelial cells (HBECs) from two COPD donors were differentiated in the presence of 0.3 ng/ml IL-13 and test compounds. At day 14, cultures were processed for qPCR, and evaluated for lung epithelial markers: goblet (Muc5ac), ciliated (Foxj1), club (Scgb1a1). 2^-ΔCt values were transformed to log form and normalized to DMSO. […]

Consider `C[C@H](NC(=O)Cc1cc(F)cc(F)c1)C(=O)N[C@H](C(=O)OC(C)(C)C)c1ccccc1` [DAPT], for which, in assay [1], the “expression of muc2 gene, a marker of Goblet cells (Q-PCR)” value was “induces the expression of muc2 gene”. For the same compound, in assay [2], the “Cell lineage induced by factor” value was “Enteroendocrine Cells, Paneth”.
Consider `Cc1ccc2nc(NC(=O)CSc3nc4c(c(=O)n3-c3ccccc3)SCC4)sc2c1` [IWP2], for which, in assay [2], the “Cell lineage induced by factor” value is “Enterocytes, Enteroendocrine Cells”.
For the compound `CC[C@H]1OC(=O)[C@H](C)[C@@H](O[C@H]2C[C@@](C)(OC)[C@@H](O)[C@H](C)O2)[C@H](C)[C@@H](O[C@@H]2O[C@H](C)C[C@H](N(C)C)[C@H]2O)[C@](C)(O)C[C@@H](C)CN(C)[C@H](C)[C@@H](O)[C@]1(C)O` [C], the “goblet cells / goblet hyperplasia (Muc5ac qPCR)” value in assay [3] (FIG. 6A) is “inhibited goblet cells”. Further, the “differentiation to ciliated (Foxj1) and club (Scgb1a1) cells (qPCR)” value in assay [3] (FIG. 6B-6C) was “promoting or maintaining differentiation to ciliated and club cells”.
